# Literature values in patent US10772837B2, “Modified release multi-layer tablet cannabinoid formulations” (CannTab Therapeutics, Limited, priority 2017, dated 2020).
# Where two headings read alike, the source gives them in different places.
# What was measured:
# [1] = pure CBD, twice-daily dosages, paediatric patients; ranging from total seizure freedom to these reductions
# [2] = for solubility: in water
SMILES,seizure reduction [1],BCS class ([2]; NICHD/FDA Oral Formulations Platform Report 1),solubility [2],solubility ([2]; listed as dronabinol)
"C=C(C)[C@@H]1CCC(C)=C[C@H]1c1c(O)cc(CCCCC)cc1O [CBD, cannabidiol]",25-80%,–,–,–
"CCCCCc1cc(O)c2c(c1)OC(C)(C)[C@@H]1CCC(C)=C[C@@H]21 [Dronabinol, (−)-trans-Δ9-tetrahydrocannabinol]",–,class 2 or class 4,insoluble in water,low
